Data from paper PMC12073402, “A Selective MAP3K1 Inhibitor Facilitates Discovery of NPM1 as a Member of the Network” (Molecules, 2025).

Key:
Experiment in all cases: KiNativ kinome profiling in PANC-1 lysate
Type in all cases: binding
ACK = target: T1, ACK (Homo sapiens, UniProt Q07912)
T1 construct: endogenous in cells; host or cells: PANC-1 cell lysate
Source text: (§1) To assess target engagement and selectivity, we opted to conduct a kinome screen (KiNativ) in PANC-1 cell lysates. This chemical proteomics (chemoproteomics) methodology allows for the evaluation of small-molecule binding to protein kinases in native systems such as cell lysates. KiNativ utilizes a soluble chemical probe comprising ATP linked to biotin through an acyl-phosphate bond. The probe covalently modifies conserved lysine residues found in the ATP binding site of essentially all protein kinases (Figure 2A). To profile a kinase inhibitor, cell lysates are treated with a vehicle control or inhibitor prior to addition of the desthiobiotin ATP probe. The ATP probe occupies the ATP binding site in the kinase, which enables the conserved lysines to be biotinylated. […] The cell lysates are digested with a protease (trypsin), biotinylated peptides are affinity-enriched on streptavidin beads, and the labeled peptides are analyzed by liquid chromatography–tandem MS (Figure 2B). If an inhibitor binds to a kinase, it competes with the ATP, thus resulting in a loss of that kinase-associated peptide signal, allowing for the quantitative measurement of inhibitor binding. Unlike recombinant enzyme assays, KiNativ IC50 values are a direct measure of active site binding instead of enzymatic activity.
(§2) Kinome profiling quantified the activity of 51-106 against >300 kinases in the PANC-1 cells. The results summarized in Figure 2C are the average of duplicate control and duplicate treated samples with 5 μM of 51-106 or DMSO.
(§3) KiNativ assay with 51-106.
(§4) ATP Loop: ATP binding loop
(§5) Activation Loop: Activation loop
(§6) ATP: ATP site in non-canonical kinase (e.g. lipid kinase)
(§7) Protein Kinase Domain: Other lysine within kinase domain, possibly not in ATP binding site
(§8) Other: Labeling of residue outside of the protein kinase domain, possibly not in ATP binding site
(§9) No change. NB = No Binding (≤ 0)
(§10) >100% increase in MS signal (>2 fold increase)
(§11) Data points inhibited […] & not considered significant are left uncolored
(§12) Note: This KiNativ dataset is the result of an analysis of duplicate treated samples and control samples.
(§13) The % changes in MS signals being reported are statistically significant (Student T -test score < 0.04)

CCRK = target: T2, CCRK (Homo sapiens, UniProt Q8IZL9); conditions: Lys2
T2 construct: endogenous in cells; host or cells: PANC-1 cell lysate
Source text: as §1, §2, §3, §4, §5, §6, §7, §8, §9, §10, §11, §12, §13

CK1a = target: T3, CK1a (Homo sapiens, UniProt P48729); conditions: Lys2
T3 construct: endogenous in cells; host or cells: PANC-1 cell lysate
Source text: as §1, §2, §3, §4, §5, §6, §7, §8, §9, §10, §11, §12, §13

CK1g1, CK1g2, CK1g3 = conditions: 5 µM; ATP Loop; KIGCGNFGELR
Source text: as §1, §2, §3, §4, §5, §6, §7, §8, §9, §10, §11, §12, §13

CLK3 = target: T4, CLK3 (Homo sapiens, UniProt P49761)
T4 construct: endogenous in cells; host or cells: PANC-1 cell lysate
Source text: as §1, §2, §3, §4, §5, §6, §7, §8, §9, §10, §11, §12, §13

[1] = test system: CaMK2a, CaMK2b, CaMK2d, CaMK2g; conditions: 5 µM; Lys2; DLKPENLLLASK
Source text: as §1, §2, §3, §4, §5, §6, §7, §8, §9, §10, §11, §12, §13

DCAMKL2 = target: T5, DCAMKL2 (Homo sapiens, UniProt Q8N568); conditions: Lys2
T5 construct: endogenous in cells; host or cells: PANC-1 lysate
Source text: as §1, §2, §3, §4, §5, §6, §7, §8, §9, §10, §11, §12, §13

DLK = target: T6, DLK (Homo sapiens, UniProt Q12852); conditions: Lys2
T6 construct: endogenous in cells; host or cells: PANC-1 lysate
Source text: as §1, §2, §3, §4, §5, §6, §7, §8, §9, §10, §11, §12, §13

FER = target: T7, FER (Homo sapiens, UniProt P16591)
T7 construct: endogenous in cells; host or cells: PANC-1 lysate
Source text: as §1, §2, §3, §4, §5, §6, §7, §8, §9, §10, §11, §12, §13

ILK = target: T8, ILK (Homo sapiens, UniProt Q13418)
T8 construct: we opted to conduct a kinome screen (KiNativ) in PANC-1 cell lysates; endogenous in cells; host or cells: PANC-1 cell lysate
Source text: as §1, §2, §3, §4, §5, §6, §7, §8, §9, §10, §11, §12, §13

MET = target: T9, MET (Homo sapiens, UniProt P08581); conditions: ATP Loop
T9 construct: endogenous in cells; host or cells: PANC-1
Source text: as §1, §2, §3, §4, §5, §6, §7, §8, §9, §10, §11, §12, §13

NDR1 = target: T10, NDR1 (Homo sapiens, UniProt Q15208)
T10 construct: endogenous in cells; host or cells: PANC-1
Source text: as §1, §2, §3, §4, §5, §6, §7, §8, §9, §10, §11, §12, §13

NuaK1 = target: T11, NuaK1 (Homo sapiens, UniProt O60285); conditions: Lys1
T11 construct: endogenous in cells; host or cells: PANC-1 cell lysate
Source text: as §1, §2, §3, §4, §5, §6, §7, §8, §9, §10, §11, §12, §13

PCTAIRE1, PCTAIRE3 = conditions: 5 µM; Lys2; DLKPQNLLINER
Source text: as §1, §2, §3, §4, §5, §6, §7, §8, §9, §10, §11, §12, §13

PEK = target: T12, PEK (Homo sapiens, UniProt Q9NZJ5); conditions: Lys2
T12 construct: endogenous in cells; host or cells: PANC-1 cell lysate
Source text: as §1, §2, §3, §4, §5, §6, §7, §8, §9, §10, §11, §12, §13

PFTAIRE2 = target: T13, PFTAIRE2 (Homo sapiens, UniProt Q96Q40); conditions: Lys2
T13 construct: endogenous in cells; host or cells: PANC-1 cell lysate
Source text: as §1, §2, §3, §4, §5, §6, §7, §8, §9, §10, §11, §12, §13

PI4KB = target: T14, PI4KB (Homo sapiens, UniProt Q9UBF8); conditions: ATP
T14 construct: endogenous in cells; host or cells: PANC-1 cell lysate
Source text: as §1, §2, §3, §4, §5, §6, §7, §8, §9, §10, §11, §12, §13

PIK3C2B = target: T15, PIK3C2B (Homo sapiens, UniProt O00750); conditions: ATP
T15 construct: endogenous in cells; host or cells: PANC-1 cell lysate
Source text: as §1, §2, §3, §4, §5, §6, §7, §8, §9, §10, §11, §12, §13

PIP4K2C = target: T16, PIP4K2C (Homo sapiens, UniProt Q8TBX8); conditions: ATP
T16 construct: endogenous in cells; host or cells: PANC-1 cell lysate
Source text: as §1, §2, §3, §4, §5, §6, §7, §8, §9, §10, §11, §12, §13

PKCa, PKCb = conditions: 5 µM; Lys2; DLKLDNVMLDSEGHIK
Source text: as §1, §2, §3, §4, §5, §6, §7, §8, §9, §10, §11, §12, §13

SRPK1, SRPK2 = conditions: 5 µM; Lys1; FVAMKVVK
Source text: as §1, §2, §3, §4, §5, §6, §7, §8, §9, §10, §11, §12, §13

TLK2 = target: T17, TLK2 (Homo sapiens, UniProt Q86UE8)
T17 construct: endogenous in cells; host or cells: PANC-1 cell lysate
Source text: as §1, §2, §3, §4, §5, §6, §7, §8, §9, §10, §11, §12, §13

Wnk1, Wnk2 = conditions: 5 µM; ATP Loop; GSFKTVYK
Source text: as §1, §2, §3, §4, §5, §6, §7, §8, §9, §10, §11, §12, §13

YANK3 = target: T18, YANK3 (Homo sapiens, UniProt Q86UX6); conditions: Lys2
T18 construct: endogenous in cells; host or cells: PANC-1 cell lysate
Source text: as §1, §2, §3, §4, §5, §6, §7, §8, §9, §10, §11, §12, §13

p70S6K = target: T19, p70S6K (Homo sapiens, UniProt P23443); conditions: Lys2
T19 construct: endogenous in cells; host or cells: PANC-1 cell lysate
Source text: as §1, §2, §3, §4, §5, §6, §7, §8, §9, §10, §11, §12, §13

T1 sequence (Q07912 whole entry): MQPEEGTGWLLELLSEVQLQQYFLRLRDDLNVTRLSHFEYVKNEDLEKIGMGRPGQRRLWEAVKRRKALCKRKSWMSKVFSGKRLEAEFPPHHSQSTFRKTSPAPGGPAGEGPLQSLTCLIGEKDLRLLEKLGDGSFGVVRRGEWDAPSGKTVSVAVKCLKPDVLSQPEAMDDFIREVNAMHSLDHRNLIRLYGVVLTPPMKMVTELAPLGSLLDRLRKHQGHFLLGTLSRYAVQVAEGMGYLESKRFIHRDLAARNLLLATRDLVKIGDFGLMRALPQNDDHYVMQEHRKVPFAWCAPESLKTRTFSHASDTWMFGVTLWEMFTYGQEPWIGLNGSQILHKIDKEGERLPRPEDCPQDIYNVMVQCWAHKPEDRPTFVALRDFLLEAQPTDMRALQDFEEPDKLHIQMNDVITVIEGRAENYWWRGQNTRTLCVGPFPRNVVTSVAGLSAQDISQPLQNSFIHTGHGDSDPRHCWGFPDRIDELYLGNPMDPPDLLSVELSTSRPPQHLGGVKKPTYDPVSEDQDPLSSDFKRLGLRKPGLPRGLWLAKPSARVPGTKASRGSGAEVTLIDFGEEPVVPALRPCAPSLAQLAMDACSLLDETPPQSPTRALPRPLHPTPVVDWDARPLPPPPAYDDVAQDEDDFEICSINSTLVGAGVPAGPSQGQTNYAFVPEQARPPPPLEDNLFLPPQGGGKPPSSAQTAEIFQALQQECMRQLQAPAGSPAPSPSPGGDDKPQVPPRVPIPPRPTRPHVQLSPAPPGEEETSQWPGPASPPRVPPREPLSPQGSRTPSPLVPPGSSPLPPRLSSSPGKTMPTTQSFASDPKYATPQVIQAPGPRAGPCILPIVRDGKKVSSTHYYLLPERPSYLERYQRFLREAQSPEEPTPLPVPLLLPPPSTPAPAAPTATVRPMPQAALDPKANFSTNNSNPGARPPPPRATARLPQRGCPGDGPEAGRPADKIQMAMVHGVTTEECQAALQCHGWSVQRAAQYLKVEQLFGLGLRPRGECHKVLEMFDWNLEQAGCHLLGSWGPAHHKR
T17 sequence (Q86UE8 whole entry): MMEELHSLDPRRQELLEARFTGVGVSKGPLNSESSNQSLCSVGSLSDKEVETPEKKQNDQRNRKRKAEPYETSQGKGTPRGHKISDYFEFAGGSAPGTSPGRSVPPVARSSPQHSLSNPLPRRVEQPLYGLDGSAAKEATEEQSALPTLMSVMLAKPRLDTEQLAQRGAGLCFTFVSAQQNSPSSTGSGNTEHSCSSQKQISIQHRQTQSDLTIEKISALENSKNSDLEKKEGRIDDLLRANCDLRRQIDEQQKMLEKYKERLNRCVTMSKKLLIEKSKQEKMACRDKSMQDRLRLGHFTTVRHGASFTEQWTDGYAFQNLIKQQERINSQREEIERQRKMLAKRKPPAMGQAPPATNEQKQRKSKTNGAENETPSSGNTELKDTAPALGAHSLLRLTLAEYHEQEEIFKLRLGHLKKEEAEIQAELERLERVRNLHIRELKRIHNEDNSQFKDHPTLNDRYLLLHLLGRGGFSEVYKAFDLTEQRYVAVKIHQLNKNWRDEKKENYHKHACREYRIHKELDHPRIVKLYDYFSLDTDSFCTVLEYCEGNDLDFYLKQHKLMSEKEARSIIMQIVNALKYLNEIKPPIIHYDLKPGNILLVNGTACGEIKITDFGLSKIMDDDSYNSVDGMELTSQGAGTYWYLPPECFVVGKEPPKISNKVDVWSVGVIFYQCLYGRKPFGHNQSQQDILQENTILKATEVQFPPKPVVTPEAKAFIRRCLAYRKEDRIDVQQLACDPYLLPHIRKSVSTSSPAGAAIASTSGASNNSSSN
T16 sequence (Q8TBX8 whole entry): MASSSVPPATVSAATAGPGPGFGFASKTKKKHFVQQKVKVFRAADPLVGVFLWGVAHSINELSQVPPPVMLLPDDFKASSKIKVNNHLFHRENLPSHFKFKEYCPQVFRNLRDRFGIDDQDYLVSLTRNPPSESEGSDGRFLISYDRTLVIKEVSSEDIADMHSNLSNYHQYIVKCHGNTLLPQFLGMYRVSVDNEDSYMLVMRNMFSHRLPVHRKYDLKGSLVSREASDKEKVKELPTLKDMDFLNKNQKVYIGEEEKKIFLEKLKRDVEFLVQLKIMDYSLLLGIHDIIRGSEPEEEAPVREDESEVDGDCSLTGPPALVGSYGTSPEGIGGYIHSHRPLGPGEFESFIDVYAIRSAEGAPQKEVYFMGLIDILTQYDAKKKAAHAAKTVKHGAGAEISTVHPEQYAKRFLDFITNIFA
T14 sequence (Q9UBF8 whole entry): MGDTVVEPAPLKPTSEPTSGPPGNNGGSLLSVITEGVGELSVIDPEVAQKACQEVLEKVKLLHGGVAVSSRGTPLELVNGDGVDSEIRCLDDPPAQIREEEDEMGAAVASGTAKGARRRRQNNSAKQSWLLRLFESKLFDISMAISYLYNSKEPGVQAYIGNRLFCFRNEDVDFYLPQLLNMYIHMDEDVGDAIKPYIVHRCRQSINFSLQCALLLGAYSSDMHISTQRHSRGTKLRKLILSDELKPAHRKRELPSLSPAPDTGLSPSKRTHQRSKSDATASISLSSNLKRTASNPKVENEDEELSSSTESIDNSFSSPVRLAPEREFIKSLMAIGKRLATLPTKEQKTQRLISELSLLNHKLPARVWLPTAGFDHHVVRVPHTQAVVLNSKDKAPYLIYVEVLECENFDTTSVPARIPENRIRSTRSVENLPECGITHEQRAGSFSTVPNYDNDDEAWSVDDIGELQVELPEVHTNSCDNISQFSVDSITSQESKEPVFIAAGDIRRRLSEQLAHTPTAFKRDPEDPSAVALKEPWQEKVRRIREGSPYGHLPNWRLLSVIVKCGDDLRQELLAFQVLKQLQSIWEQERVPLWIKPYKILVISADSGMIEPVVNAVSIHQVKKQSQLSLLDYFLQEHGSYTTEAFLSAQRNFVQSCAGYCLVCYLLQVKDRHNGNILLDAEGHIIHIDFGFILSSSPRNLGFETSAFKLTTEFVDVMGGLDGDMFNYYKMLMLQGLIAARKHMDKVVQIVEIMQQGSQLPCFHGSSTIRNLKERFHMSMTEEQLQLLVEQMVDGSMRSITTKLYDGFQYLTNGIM
T10 sequence (Q15208 whole entry): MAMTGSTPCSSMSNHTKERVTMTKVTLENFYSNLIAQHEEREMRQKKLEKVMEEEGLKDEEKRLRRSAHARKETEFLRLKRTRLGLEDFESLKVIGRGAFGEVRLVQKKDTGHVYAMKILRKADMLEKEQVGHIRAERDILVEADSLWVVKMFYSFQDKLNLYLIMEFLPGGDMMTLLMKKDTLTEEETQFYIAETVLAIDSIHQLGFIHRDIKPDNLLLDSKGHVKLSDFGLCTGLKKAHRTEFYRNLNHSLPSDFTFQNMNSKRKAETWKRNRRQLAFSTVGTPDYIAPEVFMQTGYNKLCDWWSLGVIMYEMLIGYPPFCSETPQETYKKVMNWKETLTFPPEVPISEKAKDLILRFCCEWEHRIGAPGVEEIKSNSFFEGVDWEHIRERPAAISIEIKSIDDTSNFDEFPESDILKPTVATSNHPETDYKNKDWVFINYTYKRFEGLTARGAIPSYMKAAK
T8 sequence (Q13418 whole entry): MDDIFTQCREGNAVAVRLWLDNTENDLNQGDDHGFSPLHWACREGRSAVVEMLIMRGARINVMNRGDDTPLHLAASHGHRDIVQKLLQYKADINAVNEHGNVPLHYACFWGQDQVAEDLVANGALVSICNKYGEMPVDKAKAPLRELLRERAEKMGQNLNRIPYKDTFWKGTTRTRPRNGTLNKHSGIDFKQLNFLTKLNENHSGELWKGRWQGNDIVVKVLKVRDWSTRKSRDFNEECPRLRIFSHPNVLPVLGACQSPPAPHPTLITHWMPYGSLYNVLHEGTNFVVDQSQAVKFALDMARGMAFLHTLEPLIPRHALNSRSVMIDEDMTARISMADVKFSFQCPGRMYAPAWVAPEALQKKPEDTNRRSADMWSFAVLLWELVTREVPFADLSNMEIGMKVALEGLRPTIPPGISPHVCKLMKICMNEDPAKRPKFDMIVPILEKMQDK
T7 sequence (P16591 whole entry): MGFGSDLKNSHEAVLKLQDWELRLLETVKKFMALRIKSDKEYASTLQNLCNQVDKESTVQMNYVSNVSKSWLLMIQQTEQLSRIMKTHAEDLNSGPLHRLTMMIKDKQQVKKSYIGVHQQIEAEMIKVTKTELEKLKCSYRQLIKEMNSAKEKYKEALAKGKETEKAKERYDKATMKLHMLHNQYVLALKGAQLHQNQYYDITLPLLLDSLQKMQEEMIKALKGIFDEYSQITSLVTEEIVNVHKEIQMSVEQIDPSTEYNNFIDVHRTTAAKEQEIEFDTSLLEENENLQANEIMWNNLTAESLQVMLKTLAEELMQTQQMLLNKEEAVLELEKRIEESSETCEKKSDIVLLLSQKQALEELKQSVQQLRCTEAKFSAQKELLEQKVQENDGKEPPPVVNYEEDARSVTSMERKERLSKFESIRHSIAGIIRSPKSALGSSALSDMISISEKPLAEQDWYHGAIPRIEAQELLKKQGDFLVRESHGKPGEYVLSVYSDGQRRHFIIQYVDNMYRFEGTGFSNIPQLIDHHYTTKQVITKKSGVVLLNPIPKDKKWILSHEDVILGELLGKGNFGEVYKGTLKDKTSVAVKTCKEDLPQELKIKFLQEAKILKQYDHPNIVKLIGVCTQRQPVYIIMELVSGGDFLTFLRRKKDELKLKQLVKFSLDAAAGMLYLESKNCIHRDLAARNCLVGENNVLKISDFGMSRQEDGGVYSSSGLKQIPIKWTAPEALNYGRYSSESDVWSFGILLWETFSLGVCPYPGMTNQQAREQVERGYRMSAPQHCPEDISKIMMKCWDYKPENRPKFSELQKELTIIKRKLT

With `Cn1cc(-c2cnc3ccc(NC(=O)Nc4ccc(F)c(C(F)(F)F)c4)cc3n2)cn1` [51-106, 1-(4-Fluoro-3-(trifluoromethyl)phenyl)-3-(3-(1-methyl-1H-pyrazol-4-yl)quinoxalin-6-yl)urea] the “% Inhibition” value (ACK; 5 µM, Activation Loop, KVPFAWCAPESLK) was “NB (NB = No Binding (≤ 0))”, the inhibition at 5 µM (ACK; Lys1, […]) was no more than 0% and the inhibition at 5 µM (CCRK) was 4.5%. For the same compound, the inhibition at 5 µM (CK1a) was 11.1%, the “% Inhibition” value (CK1g1, CK1g2, CK1g3) was 11.7% and the inhibition at 5 µM (CLK3; ATP Loop, YEIVGNLGEGTFGKVVECLDHAR) was no more than 0%. The inhibition at 5 µM (CLK3; Lys2, FLHENQLTHTDLKPENILFVNSEFETLYNEHK) was 4.4%, the “% Inhibition” value [1] was “NB (NB = No Binding (≤ 0))” and the inhibition at 5 µM (DCAMKL2) was no more than 0%. For the same compound, the inhibition at 5 µM (DLK) was 5.9%, the “% Inhibition” value (FER; 5 µM, ATP Loop, QEDGGVYSSSGLKQIPIK) was “NB (NB = No Binding (≤ 0))” and the inhibition at 5 µM (FER; Lys1, […]) was no more than 0%. The “% Inhibition” value (ILK; 5 µM, Protein Kinase Domain, ISMADVKFSFQCPGR) was “NB (NB = No Binding (≤ 0))”, the inhibition at 5 µM (ILK; Lys1, […]) was no more than 0% and the inhibition at 5 µM (MET) was 8.3%. The inhibition at 5 µM (NDR1; Lys1, DTGHVYAMKILR) was 6%, the inhibition at 5 µM (NDR1; Lys2, DIKPDNLLLDSK) was no more than 0% and the inhibition at 5 µM (NuaK1) was no more than 0%. For the same compound, the “% Inhibition” value (PCTAIRE1, PCTAIRE3) was 4.8%, the inhibition at 5 µM (PEK) was 10.9% and the inhibition at 5 µM (PFTAIRE2) was no more than 0%. The inhibition at 5 µM (PI4KB; LLSVIVKCGDDLRQELLAFQVLK) was no more than 0%, the inhibition at 5 µM (PI4KB; VPHTQAVVLNSKDK) was 3.9% and the inhibition at 5 µM (PIK3C2B) was 2.9%. The inhibition at 5 µM (PIP4K2C; TLVIKEVSSEDIADMHSNLSNYHQYIVK) was 21.8%, the inhibition at 5 µM (PIP4K2C; VKELPTLKDMDFLNK) was no more than 0% and the “% Inhibition” value (PKCa, PKCb) was “NB (NB = No Binding (≤ 0))”. For the same compound, the “% Inhibition” value (SRPK1, SRPK2) was “NB (NB = No Binding (≤ 0))”, the inhibition at 5 µM (TLK2; Lys1, YVAVKIHQLNK) was 1.2% and the inhibition at 5 µM (TLK2; Lys2, YLNEIKPPIIHYDLKPGNILLVNGTACGEIK) was 1.7%. The “% Inhibition” value (Wnk1, Wnk2) was “NB (NB = No Binding (≤ 0))”, the inhibition at 5 µM (YANK3) was no more than 0% and the inhibition at 5 µM (p70S6K) was no more than 0%.
